Assay results from PubChem BioAssay AID504473 (NMMLSC, 2011).
Activity calls are given as the source filed them.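 How the source made its calls: active means GFP ratio to DMSO above 1.5 or below 0.66; inactive means the rest.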

Columns and labels:
Experiment in all cases: TOR pathway GFP reporter clone modulation in yeast – S. cerevisiae, GFP-tagged clone panel, flow cytometry (AID 504473);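 further: median GFP fluorescence of the cells measured by high-throughput flow cytometry; test concentration not given here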
YDL130W = conditions: S. cerevisiae GFP-tagged strains, 3 h
YML034W = conditions: S. cerevisiae GFP-tagged strains, 3 h
YDR399W = conditions: S. cerevisiae GFP-tagged strains, 3 h
YOR038C = conditions: S. cerevisiae GFP-tagged strains, 3 h
YCL064C = conditions: S. cerevisiae GFP-tagged strains, 3 h
YDL204W = conditions: S. cerevisiae GFP-tagged strains, 3 h
YNL015W = conditions: S. cerevisiae GFP-tagged strains, 3 h
YGL062W = conditions: S. cerevisiae GFP-tagged strains, 3 h
YGR034W = conditions: S. cerevisiae GFP-tagged strains, 3 h
YGR121C = conditions: S. cerevisiae GFP-tagged strains, 3 h
YML063W = conditions: S. cerevisiae GFP-tagged strains, 3 h
YIL052C = conditions: S. cerevisiae GFP-tagged strains, 3 h
YKL119C = conditions: S. cerevisiae GFP-tagged strains, 3 h
YGR088W = conditions: S. cerevisiae GFP-tagged strains, 3 h
YML128C = conditions: S. cerevisiae GFP-tagged strains, 3 h
YLR237W = conditions: S. cerevisiae GFP-tagged strains, 3 h
YKL103C = conditions: S. cerevisiae GFP-tagged strains, 3 h
YBL087C = conditions: S. cerevisiae GFP-tagged strains, 3 h
YLR367W = conditions: S. cerevisiae GFP-tagged strains, 3 h
YEL071W = conditions: S. cerevisiae GFP-tagged strains, 3 h
YGL135W = conditions: S. cerevisiae GFP-tagged strains, 3 h
YEL060C = conditions: S. cerevisiae GFP-tagged strains, 3 h
YER151C = conditions: S. cerevisiae GFP-tagged strains, 3 h
YKR094C = conditions: S. cerevisiae GFP-tagged strains, 3 h
YBR139W = conditions: S. cerevisiae GFP-tagged strains, 3 h
YPR145W = conditions: S. cerevisiae GFP-tagged strains, 3 h
YER156C = conditions: S. cerevisiae GFP-tagged strains, 3 h
YLR142W = conditions: S. cerevisiae GFP-tagged strains, 3 h
YMR105C = conditions: S. cerevisiae GFP-tagged strains, 3 h
YKR093W = conditions: S. cerevisiae GFP-tagged strains, 3 h
YJL056C = conditions: S. cerevisiae GFP-tagged strains, 3 h
YCR005C = conditions: S. cerevisiae GFP-tagged strains, 3 h
YNL142W = conditions: S. cerevisiae GFP-tagged strains, 3 h
YKL086W = conditions: S. cerevisiae GFP-tagged strains, 3 h
YOR371C = conditions: S. cerevisiae GFP-tagged strains, 3 h
YGL036W = conditions: S. cerevisiae GFP-tagged strains, 3 h
YNL214W = conditions: S. cerevisiae GFP-tagged strains, 3 h
YER117W = conditions: S. cerevisiae GFP-tagged strains, 3 h
YNR001C = conditions: S. cerevisiae GFP-tagged strains, 3 h
YLL026W = conditions: S. cerevisiae GFP-tagged strains, 3 h
YNL068C = conditions: S. cerevisiae GFP-tagged strains, 3 h
YIL051C = conditions: S. cerevisiae GFP-tagged strains, 3 h
[1] = molecular target: General amino acid permease AGP1 (Saccharomyces cerevisiae S288c) (UniProt P25376); conditions: S. cerevisiae GFP-tagged strains, 3 h, YCL025C
Chain of General amino acid permease AGP1 (Saccharomyces cerevisiae S288c) (P25376 whole entry, looked up): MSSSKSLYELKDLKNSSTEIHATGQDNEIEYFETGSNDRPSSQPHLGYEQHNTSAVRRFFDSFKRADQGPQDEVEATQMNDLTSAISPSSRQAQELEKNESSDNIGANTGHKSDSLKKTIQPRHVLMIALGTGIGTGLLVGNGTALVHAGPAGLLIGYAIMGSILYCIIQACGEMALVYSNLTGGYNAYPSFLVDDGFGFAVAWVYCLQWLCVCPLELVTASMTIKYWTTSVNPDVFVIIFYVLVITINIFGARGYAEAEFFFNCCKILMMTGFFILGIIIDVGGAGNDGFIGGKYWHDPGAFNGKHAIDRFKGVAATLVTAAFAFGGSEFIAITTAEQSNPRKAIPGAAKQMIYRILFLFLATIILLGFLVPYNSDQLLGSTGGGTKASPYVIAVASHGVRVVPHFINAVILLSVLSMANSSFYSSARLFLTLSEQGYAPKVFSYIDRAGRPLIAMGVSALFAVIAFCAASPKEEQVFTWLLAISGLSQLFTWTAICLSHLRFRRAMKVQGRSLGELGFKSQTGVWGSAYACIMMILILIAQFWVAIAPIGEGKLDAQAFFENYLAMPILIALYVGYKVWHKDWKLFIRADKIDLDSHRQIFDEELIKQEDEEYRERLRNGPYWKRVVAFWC

YLR287C-A = conditions: S. cerevisiae GFP-tagged strains, 3 h
YMR307W = conditions: S. cerevisiae GFP-tagged strains, 3 h
YOR375C = conditions: S. cerevisiae GFP-tagged strains, 3 h
YKR039W = conditions: S. cerevisiae GFP-tagged strains, 3 h
YLL039C = conditions: S. cerevisiae GFP-tagged strains, 3 h
YDL205C = conditions: S. cerevisiae GFP-tagged strains, 3 h
YHR144C = conditions: S. cerevisiae GFP-tagged strains, 3 h
YMR120C = conditions: S. cerevisiae GFP-tagged strains, 3 h
YBR208C = conditions: S. cerevisiae GFP-tagged strains, 3 h
YPR184W = conditions: S. cerevisiae GFP-tagged strains, 3 h
YIL069C = conditions: S. cerevisiae GFP-tagged strains, 3 h
YDR070C = conditions: S. cerevisiae GFP-tagged strains, 3 h
YML026C = conditions: S. cerevisiae GFP-tagged strains, 3 h
YHR087W = conditions: S. cerevisiae GFP-tagged strains, 3 h
YER081W = conditions: S. cerevisiae GFP-tagged strains, 3 h
YAL060W = conditions: S. cerevisiae GFP-tagged strains, 3 h
YNL112W = conditions: S. cerevisiae GFP-tagged strains, 3 h
YMR251W-A = conditions: S. cerevisiae GFP-tagged strains, 3 h
YHR018C = conditions: S. cerevisiae GFP-tagged strains, 3 h
YHL021C = conditions: S. cerevisiae GFP-tagged strains, 3 h
YOR063W = conditions: S. cerevisiae GFP-tagged strains, 3 h
YJL144W = conditions: S. cerevisiae GFP-tagged strains, 3 h
YHR141C = conditions: S. cerevisiae GFP-tagged strains, 3 h
YGR019W = conditions: S. cerevisiae GFP-tagged strains, 3 h
YFR053C = conditions: S. cerevisiae GFP-tagged strains, 3 h
YOR136W = conditions: S. cerevisiae GFP-tagged strains, 3 h
YHR203C = conditions: S. cerevisiae GFP-tagged strains, 3 h
YLR185W = conditions: S. cerevisiae GFP-tagged strains, 3 h
YPL220W = conditions: S. cerevisiae GFP-tagged strains, 3 h
YPL111W = conditions: S. cerevisiae GFP-tagged strains, 3 h
YEL063C = conditions: S. cerevisiae GFP-tagged strains, 3 h
YBR248C = conditions: S. cerevisiae GFP-tagged strains, 3 h
YPL150W = conditions: S. cerevisiae GFP-tagged strains, 3 h
YPL265W = conditions: S. cerevisiae GFP-tagged strains, 3 h
YLR109W = conditions: S. cerevisiae GFP-tagged strains, 3 h
YOR182C = conditions: S. cerevisiae GFP-tagged strains, 3 h
YPR132W = conditions: S. cerevisiae GFP-tagged strains, 3 h
YIL066C = conditions: S. cerevisiae GFP-tagged strains, 3 h
YEL007W = conditions: S. cerevisiae GFP-tagged strains, 3 h
YDR382W = conditions: S. cerevisiae GFP-tagged strains, 3 h
YJR148W = conditions: S. cerevisiae GFP-tagged strains, 3 h
YPL131W = conditions: S. cerevisiae GFP-tagged strains, 3 h
YML004C = conditions: S. cerevisiae GFP-tagged strains, 3 h
YOL052C-A = conditions: S. cerevisiae GFP-tagged strains, 3 h
YFR031C-A = conditions: S. cerevisiae GFP-tagged strains, 3 h
YDR453C = conditions: S. cerevisiae GFP-tagged strains, 3 h
YBR072W = conditions: S. cerevisiae GFP-tagged strains, 3 h
YCR002C = conditions: S. cerevisiae GFP-tagged strains, 3 h
YLR058C = conditions: S. cerevisiae GFP-tagged strains, 3 h
YAL061W = conditions: S. cerevisiae GFP-tagged strains, 3 h
YOR173W = conditions: S. cerevisiae GFP-tagged strains, 3 h
YGL147C = conditions: S. cerevisiae GFP-tagged strains, 3 h
YIL043C = conditions: S. cerevisiae GFP-tagged strains, 3 h

GFP ratio to DMSO [1]: 0.776 (inactive)
Structure (SMILES): CNc1nc(N)c([N+](=O)[O-])c(Nc2ccccc2)n1
GFP ratio to DMSO (YDL130W): 1.09 (inactive)
GFP ratio to DMSO (YML034W): 0.814 (inactive)
GFP ratio to DMSO (YDR399W): 0.947 (inactive)
GFP ratio to DMSO (YOR038C): 0.966 (inactive)
GFP ratio to DMSO (YCL064C): 0.878 (inactive)
GFP ratio to DMSO (YDL204W): 0.948 (inactive)
GFP ratio to DMSO (YNL015W): 0.929 (inactive)
GFP ratio to DMSO (YGL062W): 1.34 (inactive)
GFP ratio to DMSO (YGR034W): 1.07 (inactive)
GFP ratio to DMSO (YGR121C): 0.942 (inactive)
GFP ratio to DMSO (YML063W): 1.07 (inactive)
GFP ratio to DMSO (YIL052C): 0.931 (inactive)
GFP ratio to DMSO (YKL119C): 0.959 (inactive)
GFP ratio to DMSO (YGR088W): 0.924 (inactive)
GFP ratio to DMSO (YML128C): 0.827 (inactive)
GFP ratio to DMSO (YLR237W): 0.848 (inactive)
GFP ratio to DMSO (YKL103C): 0.988 (inactive)
GFP ratio to DMSO (YBL087C): 1 (inactive)
GFP ratio to DMSO (YLR367W): 1.06 (inactive)
GFP ratio to DMSO (YEL071W): 1.66
GFP ratio to DMSO (YGL135W): 1.08 (inactive)
GFP ratio to DMSO (YEL060C): 0.694 (inactive)
GFP ratio to DMSO (YER151C): 0.943 (inactive)
GFP ratio to DMSO (YKR094C): 1.11 (inactive)
GFP ratio to DMSO (YBR139W): 0.915 (inactive)
GFP ratio to DMSO (YPR145W): 1.17 (inactive)
GFP ratio to DMSO (YER156C): 0.978 (inactive)
GFP ratio to DMSO (YLR142W): 0.866 (inactive)
GFP ratio to DMSO (YMR105C): 1.02 (inactive)
GFP ratio to DMSO (YKR093W): 1.17 (inactive)
GFP ratio to DMSO (YJL056C): 0.808 (inactive)
GFP ratio to DMSO (YCR005C): 1.37 (inactive)
GFP ratio to DMSO (YNL142W): 0.933 (inactive)
GFP ratio to DMSO (YKL086W): 0.881 (inactive)
GFP ratio to DMSO (YOR371C): 0.844 (inactive)
GFP ratio to DMSO (YGL036W): 0.822 (inactive)
GFP ratio to DMSO (YNL214W): 1.01 (inactive)
GFP ratio to DMSO (YER117W): 0.909 (inactive)
GFP ratio to DMSO (YNR001C): 1.05 (inactive)
GFP ratio to DMSO (YLL026W): 1 (inactive)
GFP ratio to DMSO (YNL068C): 0.902 (inactive)
GFP ratio to DMSO (YIL051C): 0.923 (inactive)
GFP ratio to DMSO (YLR287C-A): 1.1 (inactive)
GFP ratio to DMSO (YMR307W): 1.05 (inactive)
GFP ratio to DMSO (YOR375C): 1.03 (inactive)
GFP ratio to DMSO (YKR039W): 0.804 (inactive)
GFP ratio to DMSO (YLL039C): 0.733 (inactive)
GFP ratio to DMSO (YDL205C): 0.983 (inactive)
GFP ratio to DMSO (YHR144C): 0.896 (inactive)
GFP ratio to DMSO (YMR120C): 0.519
GFP ratio to DMSO (YBR208C): 0.853 (inactive)
GFP ratio to DMSO (YPR184W): 0.886 (inactive)
GFP ratio to DMSO (YIL069C): 1.11 (inactive)
GFP ratio to DMSO (YDR070C): 0.918 (inactive)
GFP ratio to DMSO (YML026C): 0.957 (inactive)
GFP ratio to DMSO (YHR087W): 0.827 (inactive)
GFP ratio to DMSO (YER081W): 1.14 (inactive)
GFP ratio to DMSO (YAL060W): 0.91 (inactive)
GFP ratio to DMSO (YNL112W): 1.12 (inactive)
GFP ratio to DMSO (YMR251W-A): 0.892 (inactive)
GFP ratio to DMSO (YHR018C): 0.874 (inactive)
GFP ratio to DMSO (YHL021C): 1.07 (inactive)
GFP ratio to DMSO (YOR063W): 1.07 (inactive)
GFP ratio to DMSO (YJL144W): 0.911 (inactive)
GFP ratio to DMSO (YHR141C): 1.04 (inactive)
GFP ratio to DMSO (YGR019W): 0.906 (inactive)
GFP ratio to DMSO (YFR053C): 0.83 (inactive)
GFP ratio to DMSO (YOR136W): 1.11 (inactive)
GFP ratio to DMSO (YHR203C): 1.04 (inactive)
GFP ratio to DMSO (YLR185W): 1.08 (inactive)
GFP ratio to DMSO (YPL220W): 1.01 (inactive)
GFP ratio to DMSO (YPL111W): 1.02 (inactive)
GFP ratio to DMSO (YEL063C): 1.03 (inactive)
GFP ratio to DMSO (YBR248C): 0.927 (inactive)
GFP ratio to DMSO (YPL150W): 0.843 (inactive)
GFP ratio to DMSO (YPL265W): 1.38 (inactive)
GFP ratio to DMSO (YLR109W): 1.17 (inactive)
GFP ratio to DMSO (YOR182C): 1.02 (inactive)
GFP ratio to DMSO (YPR132W): 1.18 (inactive)
GFP ratio to DMSO (YIL066C): 0.844 (inactive)
GFP ratio to DMSO (YEL007W): 0.874 (inactive)
GFP ratio to DMSO (YDR382W): 1.14 (inactive)
GFP ratio to DMSO (YJR148W): 1.26 (inactive)
GFP ratio to DMSO (YPL131W): 1.14 (inactive)
GFP ratio to DMSO (YML004C): 0.838 (inactive)
GFP ratio to DMSO (YOL052C-A): 0.961 (inactive)
GFP ratio to DMSO (YFR031C-A): 1.06 (inactive)
GFP ratio to DMSO (YDR453C): 0.899 (inactive)
GFP ratio to DMSO (YBR072W): 0.795 (inactive)
GFP ratio to DMSO (YCR002C): 0.929 (inactive)
GFP ratio to DMSO (YLR058C): 0.838 (inactive)
GFP ratio to DMSO (YAL061W): 0.796 (inactive)
GFP ratio to DMSO (YOR173W): 0.941 (inactive)
GFP ratio to DMSO (YGL147C): 1.05 (inactive)
GFP ratio to DMSO (YIL043C): 1.02 (inactive)
